One assay addresses KRAS-WT (Homo sapiens, UniProt P01116). In words: SOS-catalyzed nucleotide exchange assay (Procedure A, TR-FRET), KRAS-WT. In kind it is biochemical. Particulars: nucleotide exchange, read-out: KRAS WT GNE IC50. The procedure, abridged:
(§1)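 TR-FRET readout (520/495 nm) of SOS-driven exchange of Bodipy-GDP for unlabeled GTP (3 mM) on biotinylated, Tb-streptavidin-bound RAS, after 60 min compound preincubation at room temperature. Exchange times and RAS/SOS levels: 60 min for WT (1/40 nM), G12C triple mutant (3/40 nM), NRAS (1.25/40 nM); 90 min for G12V (1.25/160 nM). Four-parameter logistic fits on normalized effect.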
A general note: In TR-FRET formats the signal depends on donor and acceptor labels being close together.

In assay [1] the target is KRAS-G12C (C51S/C80L/C118S) (Homo sapiens, UniProt P01116, C118S/C51S/C80L/G12C). In words: SOS-catalyzed nucleotide exchange assay (Procedure A, TR-FRET), KRAS-G12C. It counts as biochemical. Particulars: nucleotide exchange, Procedure A; read-out: KRAS G12C GNE IC50. The procedure, abridged:
as §1

The target of another assay is KRAS-G12D (Homo sapiens, UniProt P01116, G12D). In words: SOS-catalyzed nucleotide exchange assay (Procedure A, TR-FRET), KRAS-G12D. Particulars: nucleotide exchange, read-out: KRAS G12D GNE IC50. It counts as biochemical. The procedure, abridged:
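Signal ratio (520/495 nm, excitation 340 nm) reports Bodipy-GDP retention on biotinylated RAS after SOS-catalyzed exchange with 3 mM GTP. SOS was 40 nM, except 160 nM for G12V. Room-temperature exchange lasted 60 min (90 min for G12V), following a 60 min compound preincubation.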

The next assay deals with KRAS-G12V (Homo sapiens, UniProt P01116, G12V). Description: SOS-catalyzed nucleotide exchange assay (Procedure A, TR-FRET), KRAS-G12V. It counts as biochemical. The following applies: nucleotide exchange, read-out: KRAS G12V GNE IC50. The procedure, abridged: as §1
In the next assay the target is KRAS-G13D (Homo sapiens, UniProt P01116, G13D). In words: SOS-catalyzed nucleotide exchange assay (Procedure A, TR-FRET), KRAS-G13D. In kind it is biochemical. The following applies: nucleotide exchange, Procedure A; read-out: KRAS G13D GNE IC50.
The target of the next assay is HRAS (Homo sapiens, UniProt P01112). Description: SOS-catalyzed nucleotide exchange assay (Procedure A, TR-FRET), HRAS. Particulars: read-out: HRAS GNE IC50. In kind it is biochemical. An excerpt: Procedure for SOS-Catalyzed Nucleotide Exchange Assay for KRAS-WT, G12C/D/V, G13D, HRAS, and NRAS (Procedure A)
Recombinant KRAS-G12C protein used in this assay has an additional triple mutation (C51S/C80L/C118S). Whereas KRAS-WT, G12D/V, G13D, HRAS and NRAS are in context of their WT protein sequence background. Specifically, the SOS-catalyzed nucleotide exchange assay utilizes a preformed TR-FRET complex containing a specific biotinylated RAS protein (KRAS-WT, G12C/V/D, G13D, HRAS, NRAS; described above) with Bodipy-GDP, and Terbium-streptavidin. Compounds are preincubated with this complex for 60 minutes. Subsequently, recombinant human SOS protein and unlabeled GTP are added to initiate the exchange reaction. Small molecule inhibitors stabilize the Bodipy-GDP complex whereas the untreated protein rapidly exchanges Bodipy-GDP for unlabeled GTP resulting in reduced TR-FRET signal.
To assemble the preformed TR-FRET complexes, each biotinylated RAS protein is diluted to 2 μM in an EDTA Buffer (20 mM HEPES pH 7.5, 50 mM sodium chloride, 10 mM EDTA, and 0.01% Tween) and incubated at room temperature for one hour. This mixture is then further diluted to 90 nM in an Assay Buffer (20 mM HEPES pH 7.5, 150 mM sodium chloride, 10 mM magnesium chloride, and 0.005% Tween) containing 15 nM of Terbium-Streptavidin (Invitrogen, catalog #PV3577) and 900 nM of Bodipy-GDP (Invitrogen, catalog #G22360) and incubated at room temperature for six hours. It should be noted that this preformed TR-FRET complex for each of the RAS protein were made ahead of time, aliquoted and stored at −80° C. until the day of the experiment.
Each test compound (10 mM stock in DMSO) is diluted in DMSO to make a final-10-point, 3-fold dilution and is acoustically dispensed into a 384-well assay plate (Corning, catalog #3820) using an Echo 550 (Labcyte). Each well of the assay plate receives 3 μL of a specific 3×RAS preformed TR-FRET complex and 3 μL of Assay Buffer and is incubated at room temperature for 60 minutes (preincubation time). Each well then receives 3 μL of 3×recombinant human SOS protein and GTP (Sigma, G8877) in Assay Buffer and is incubated at room temperature for 30 minutes (G13D), 60 minutes (KRAS WT/G12C/D, H/NRAS) or 90 minutes for G12V. The final reaction in each well of 9 μL consists of 3 mM GTP, specific Ras and SOS proteins in the following concentrations: KRAS-G12C/SOS=3 nM/40 nM, KRAS-WT and G12D/SOS=1 nM/40 nM, KRAS-G12V/SOS=1.25 nM/160 nM. KRAS-G13D/SOS=1.25 nM/0 nM, HRAS and NRAS=1.25 nM/40 nM.
The time-resolved fluorescence resonance energy transfer (TR-FRET) signal is measured on an Envision (PerkinElmer) plate reader: Excitation filter=340 nm; emission 1=495 nm; emission2=520 nm; dichroic mirror=D400/D505; delay time=[…]. The signal of each well is determined as the ratio of the emission at 520 nm to that at 495 nm. Percent effect of each well is determined after normalization to control wells containing DMSO (no effect) or a saturating concentration of inhibitor (max effect). The apparent effect as a function of compound concentration is fit to a four-parameter logistic equation.

The subject of the next assay is MKN-1 cells. In words: Cellular phospho-ERK assay, MKN-1 cells (amplified wild-type KRAS). It counts as cell-based. Particulars: Homo sapiens, 2 hours compound incubation, read-out: MKN1 pERK IC50. The procedure, abridged:
(§2)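 Cells seeded at 10,000-15,000 per well were incubated overnight, then exposed to compound for 2 hours at 37 °C in a 10-point, 1:3 series topping at 30 μM final. Lysates were assayed by Alpha SureFire Ultra multiplex for p-ERK and total ERK; IC50 came from a 4-parameter logistic fit of their ratio.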

The next assay has as its system AsPC-1 cells. In words: Cellular phospho-ERK assay, AsPC-1 cells (homozygous KRAS-G12D). It counts as cell-based. Particulars: Homo sapiens, ASPC1, 2 h, 2 hours compound incubation, read-out: AsPC1 pERK IC50. The procedure, abridged: as §2
The next assay deals with SW620 cells. Description: Cellular phospho-ERK assay, SW620 cells (homozygous KRAS-G12V). In kind it is cell-based. Particulars: Homo sapiens, SW-620, 2 hours compound incubation, read-out: SW620 pERK IC50. The procedure, abridged: as §2
Assay [2] addresses T1, KRAS G12C (amino acids 1-169) (Homo sapiens, UniProt P01116, G12C).
T1 construct: made in house; host or cells: E. coli
Description: SOS-catalyzed nucleotide exchange assay (Procedure B, BODIPY FL GDP displacement), KRAS G12C. In kind it is biochemical. The following applies: read-out: KRAS G12C GNE IC50. The procedure, abridged: (§3)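 Purified BODIPY FL GDP-loaded KRAS (aa 1-169, E. coli-expressed), 2.5 nM, preincubated with compound 1 h at 25° C in Tris pH 7.5/MgCl2 buffer; SOS1 (aa 564-1049) plus GMPPNP then added, 30 min at room temperature. Fluorescence ratio before/after exchange normalized to DMSO and no-SOS1/GMPPNP controls; IC50 by 4-parameter logistic fit.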

For assay [3], the target named is T2, KRAS G12D (amino acids 1-169) (Homo sapiens, UniProt P01116, G12D).
T2 construct: made in house; host or cells: E. coli
In words: SOS-catalyzed nucleotide exchange assay (Procedure B, BODIPY FL GDP displacement), KRAS G12D. It counts as biochemical. The following applies: read-out: KRAS G12D GNE IC50. The procedure, abridged:
as §3

Assay [4] has as its target T3, KRAS G12V (amino acids 1-169) (Homo sapiens, UniProt P01116, G12V).
T3 construct: made in house; host or cells: E. coli
Description: SOS-catalyzed nucleotide exchange assay (Procedure B, BODIPY FL GDP displacement), KRAS G12V. In kind it is biochemical. The following applies: read-out: KRAS G12V GNE IC50. The procedure, abridged:
as §3

In assay [5] the target is T4, KRAS WT (amino acids 1-169) (Homo sapiens, UniProt P01116).
T4 construct: made in house; host or cells: E. coli
Description: SOS-catalyzed nucleotide exchange assay (Procedure B, BODIPY FL GDP displacement), KRAS WT. Particulars: read-out: KRAS WT GNE IC50. It counts as biochemical. The procedure, abridged: as §3

As usually defined, the IC50 is the concentration at which inhibition is half-maximal.

T2 sequence (P01116 with tags, fused parts or gaps isoform P01116-2 G12D): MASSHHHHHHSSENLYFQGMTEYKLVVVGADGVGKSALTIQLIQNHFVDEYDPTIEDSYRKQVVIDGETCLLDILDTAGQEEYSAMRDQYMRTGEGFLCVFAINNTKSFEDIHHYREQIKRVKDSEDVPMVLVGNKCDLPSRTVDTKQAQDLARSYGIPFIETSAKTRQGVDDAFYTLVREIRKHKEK
T1 sequence (P01116 with tags, fused parts or gaps isoform P01116-2 G12C): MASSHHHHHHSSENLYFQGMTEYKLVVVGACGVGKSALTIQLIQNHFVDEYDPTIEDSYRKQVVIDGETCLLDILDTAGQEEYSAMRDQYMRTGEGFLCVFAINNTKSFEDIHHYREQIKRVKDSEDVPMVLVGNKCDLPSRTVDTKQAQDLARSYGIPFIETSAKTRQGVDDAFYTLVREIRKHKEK
T3 sequence (P01116 with tags, fused parts or gaps isoform P01116-2 G12V): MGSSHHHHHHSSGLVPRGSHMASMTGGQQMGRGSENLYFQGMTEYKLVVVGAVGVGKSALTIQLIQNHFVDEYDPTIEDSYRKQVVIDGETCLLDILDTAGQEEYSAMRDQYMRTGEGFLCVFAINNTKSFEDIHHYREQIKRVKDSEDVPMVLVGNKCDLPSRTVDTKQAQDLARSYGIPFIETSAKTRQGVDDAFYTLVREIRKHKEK
T4 sequence (P01116 with tags, fused parts or gaps isoform P01116-2): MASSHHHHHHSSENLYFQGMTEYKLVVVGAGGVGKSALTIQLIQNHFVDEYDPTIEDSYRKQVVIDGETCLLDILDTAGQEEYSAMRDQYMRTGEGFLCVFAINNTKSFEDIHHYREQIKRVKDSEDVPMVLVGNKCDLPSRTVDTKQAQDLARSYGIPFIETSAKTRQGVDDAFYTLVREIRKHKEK
HRAS, sequence (P01112 with tags, fused parts or gaps): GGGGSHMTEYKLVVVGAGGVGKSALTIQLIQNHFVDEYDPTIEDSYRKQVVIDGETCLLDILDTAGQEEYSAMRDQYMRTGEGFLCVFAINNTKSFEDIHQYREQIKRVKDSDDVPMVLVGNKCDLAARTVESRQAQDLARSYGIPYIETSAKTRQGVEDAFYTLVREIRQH
KRAS-G12C (C51S/C80L/C118S), sequence (P01116 with tags, fused parts or gaps isoform P01116-2 G12C/C51S/C80L/C118S): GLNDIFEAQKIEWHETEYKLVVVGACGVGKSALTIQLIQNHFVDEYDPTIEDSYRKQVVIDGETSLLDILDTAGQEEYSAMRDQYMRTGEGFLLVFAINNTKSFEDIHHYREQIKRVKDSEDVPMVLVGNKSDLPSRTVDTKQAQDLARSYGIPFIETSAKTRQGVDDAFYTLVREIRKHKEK
KRAS-G12V, sequence (P01116 with tags, fused parts or gaps isoform P01116-2 G12V): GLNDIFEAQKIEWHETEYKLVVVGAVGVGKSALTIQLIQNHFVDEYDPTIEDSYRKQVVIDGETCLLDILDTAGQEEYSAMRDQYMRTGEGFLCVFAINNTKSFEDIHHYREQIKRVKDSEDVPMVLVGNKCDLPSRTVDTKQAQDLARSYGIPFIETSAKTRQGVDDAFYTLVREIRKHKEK
KRAS-G12D, sequence (P01116 with tags, fused parts or gaps isoform P01116-2 G12D): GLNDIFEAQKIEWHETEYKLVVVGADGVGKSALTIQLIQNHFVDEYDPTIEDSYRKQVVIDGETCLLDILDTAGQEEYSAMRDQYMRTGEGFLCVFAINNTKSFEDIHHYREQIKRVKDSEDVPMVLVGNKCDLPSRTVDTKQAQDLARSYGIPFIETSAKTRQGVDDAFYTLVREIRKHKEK
KRAS-WT, sequence (P01116 with tags, fused parts or gaps isoform P01116-2): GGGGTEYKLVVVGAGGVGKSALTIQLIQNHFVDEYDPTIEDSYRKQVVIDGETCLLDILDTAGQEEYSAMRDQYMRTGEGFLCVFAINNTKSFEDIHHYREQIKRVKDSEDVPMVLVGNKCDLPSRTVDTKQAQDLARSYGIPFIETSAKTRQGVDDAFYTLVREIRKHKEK
KRAS-G13D, sequence (P01116 with tags, fused parts or gaps isoform P01116-2 G13D): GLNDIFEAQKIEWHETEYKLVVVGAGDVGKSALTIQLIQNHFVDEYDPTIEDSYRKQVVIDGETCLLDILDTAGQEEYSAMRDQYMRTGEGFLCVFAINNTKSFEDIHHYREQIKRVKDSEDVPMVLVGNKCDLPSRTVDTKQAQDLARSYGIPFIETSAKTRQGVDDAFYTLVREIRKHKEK

With `C[C@@]1(O)COCCN(c2nc(OC[C@]3(CN4C[C@H]5CCCO[C@H]5C4)CC3(F)F)nc3sc4c(-c5c(C6(F)CC6)c(Cl)cc6[nH]ncc56)nccc4c23)C1` [Ex-255, (6S)-4-(8-(6-chloro-5-(1-fluorocyclopropyl)-1H-indazol-4-yl)-2-(((R)-2,2-difluoro-1-(((4aR,7aR)-hexahydropyrano[2,3-c]pyrrol-6(2H)-yl)methyl)cyclopropyl)metho-xy)pyrido[4′,3′:4,5]thieno[2,3-d]pyrimidin-4-yl)-6-methyl-1,4-oxazepan-6-o1], the IC50 is 18.5 nM on KRAS-WT; 86.7 nM in [1]; 4.79 nM on KRAS-G12D; 14.9 nM at KRAS-G12V; 12.8 nM at KRAS-G13D; 1390 nM at HRAS. The IC50 with MKN-1 cells was determined as 25.3 nM; in the assay with AsPC-1 cells it was 93.3 nM; in the assay on SW620 cells it was 40.1 nM.

In the case of `[2H]C([2H])([2H])N(C[C@@]1(COc2nc(N3CCOC[C@@](C)(O)C3)c3c(n2)sc2c(-c4c(C5(F)CC5)c(Cl)cc5[nH]ncc45)nccc23)CC1(F)F)C([2H])([2H])[2H]` [Ex-231], the IC50 on KRAS-WT amounted to 8.55 nM; in [1], 20.3 nM; at KRAS-G12D, 2.87 nM; at KRAS-G12V it was 8.77 nM; on KRAS-G13D it was 15 nM; at HRAS, 492 nM. Moreover, the IC50 with AsPC-1 cells turned out to be 25.7 nM.

Consider `CC1Cc2cc3[nH]ncc3c(-c3nccc4c3sc3nc(OC[C@@]56CCCN5C[C@H](F)C6)nc(N5CCOC[C@@](C)(O)C5)c34)c2C1` (stereo partly drawn) [Ex-113, (6S)-4-(2-(((2R,7aS)-2-fluorotetrahydro-1H-pyrrolizin-7a(5H)-yl)methoxy)-8-(6-methyl-1,5,6,7-tetrahydrocyclopenta[f]in-dazol-4-yl)pyrido[4′,3′:4,5]thieno [2,3-d]pyrimidin-4-yl)-6-methy1-1,4-oxazepan-6-ol], for which the IC50 in [2] turned out to be 177 nM; in [3], 88.5 nM; in assay [4] it was 123 nM; in assay [5], 150 nM.

`C[C@H]1CN2C[C@H](F)C[C@@]2(COc2nc(N3CCOC[C@@](C)(O)C3)c3c(n2)sc2c(-c4c(C5CC5)c(Cl)cc5[nH]ncc45)nccc23)C1` [Ex-226, (6S)-4-(8-(6-chloro-5-cyclopropyl-1H-indazol-4-yl)-2-(((2R,6R,7aR)-2-fluoro-6-methyl-tetrahydro-1H-pyrrolizin-7a(5H)-yl)methoxy)pyrido [4′,3′:4,5]thieno[2,3-d]pyrimidin-4-yl)-6-methyl-1,4-oxaze-pan-6-ol]: the IC50 in assay [2] came out at 48 nM; in assay [3], 30.6 nM; in assay [4], 42.1 nM; in assay [5], 50.9 nM.

Turning to `CC1(F)c2c(cc3[nH]ncc3c2-c2nccc3c2sc2nc(OC[C@@]45CCCN4C[C@H](F)C5)nc(N4CCOC[C@@](C)(O)C4)c23)CC1(F)F` (single isomer, unassigned) [Ex-99], the IC50 amounted to 52.4 nM in assay [2], 27.3 nM in assay [3], 65.6 nM in assay [4] and 56.5 nM in assay [5].

`C[C@@]1(O)COCCN(c2nc(OC[C@@]34CCCN3C[C@H](F)C4)nc3sc4c(-c5c(C6=CCOC6)c(Cl)cc6[nH]ncc56)nccc4c23)C1` [Ex-74, (6S)-4-(8-(6-chloro-5-(2,5-dihydrofuran-3-yl)-1H-indazol-4-yl)-2-(((2R,7aS)-2-fluorotetrahydro-1H-pyrrolizin-7a(5H)-yl)methoxy)pyrido[4′,3′:4,5]thi-eno[2,3-d]pyrimidin-4-yl)-6-methyl-1,4-oxazepan-6-ol]: the IC50 in [2] came out at 819 nM; in assay [3], 438 nM; in assay [4] it was 1260 nM; in assay [5], 933 nM.

Take `CC1c2c(cc3[nH]ncc3c2-c2nccc3c2sc2nc(OC[C@@]45CCCN4C[C@H](F)C5)nc(N4CCOC[C@@](C)(O)C4)c23)CC1(F)F` (single isomer, unassigned) [Ex-107]: the IC50 in assay [2] was 19.8 nM; in assay [3], 3.81 nM; in [4], 9.52 nM; in assay [5] it was 6.2 nM.

In the case of `CCCC1CCc2cc3[nH]ncc3c(-c3nccc4c3sc3nc(OC[C@@]56CCCN5C[C@H](F)C6)nc(N5CCOC[C@@](C)(O)C5)c34)c21` (some centres unmarked) [Ex-95], the IC50 was found to be 91.5 nM in assay [2], 49.8 nM in assay [3], 65 nM in assay [4] and 99.4 nM in assay [5].

`C[C@@]1(O)COCCN(c2nc(OC[C@@]34CCCN3C[C@H](F)C4)nc3sc4c(-c5c(-c6cnco6)c(Cl)cc6[nH]ncc56)nccc4c23)C1` [Ex-75, (6S)-4-(8-(6-chloro-5-(oxazol-5-yl)-1H-indazol-4-yl)-2-(((2R,7aS)-2-fluorotetrahydro-1H-pyrrolizin-7a(5H)-yl)methoxy)pyrido[4′,3′:4,5]thi-eno[2,3-d]pyrimidin-4-yl)-6-methyl-1,4-oxazepan-6-ol]: the IC50 worked out at 56 nM in [2], 19.3 nM in [3], 118 nM in assay [4] and 60.8 nM in [5].
